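Following 48 hours of exposure in 96-well plates, responses at five concentrations were used to interpolate endpoints linearly. GI50 is the concentration that inhibits growth by half.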 Active and inactive are the calls of the source. No stated cut-off is given here; in the data, active = GI50 up to about 1.1 µM and inactive = higher.
What was measured:
Test in all cases: NCI anticancer screen, dose series, 48 h
SK-MEL-5 = tested on: SK-MEL-5
NCI-H460 = tested on: NCI-H460
786-0 = tested on: 786-0
MDA-MB-231 = tested on: MDA-MB-231
ACHN = tested on: ACHN
HCC 2998 = tested on: HCC 2998
OVCAR-8 = tested on: OVCAR-8
T47D = tested on: T47D
KM12 = tested on: KM12
RXF 393 = tested on: RXF 393
NCI-H226 = tested on: NCI-H226
EKVX = tested on: EKVX
SK-MEL-2 = tested on: SK-MEL-2
COLO 205 = tested on: COLO 205
NCI-H23 = tested on: NCI-H23
CAKI-1 = tested on: CAKI-1
OVCAR-5 = tested on: OVCAR-5
UACC-62 = tested on: UACC-62
A549 = tested on: A549
PC-3 = tested on: PC-3

Compound	GI50 (SK-MEL-5)	GI50 (NCI-H460)	GI50 (786-0)	GI50 (MDA-MB-231)	GI50 (ACHN)	GI50 (HCC 2998)	GI50 (OVCAR-8)	GI50 (T47D)	GI50 (KM12)	GI50 (RXF 393)	GI50 (NCI-H226)	GI50 (EKVX)	GI50 (SK-MEL-2)	GI50 (COLO 205)	GI50 (NCI-H23)	GI50 (CAKI-1)	GI50 (OVCAR-5)	GI50 (UACC-62)	GI50 (A549)	GI50 (PC-3)
Nc1nc(-c2cccnc2)cc(-c2cc(-c3cccnc3)nc(N)n2)n1	> 100 µM (inactive)	> 100 µM (inactive)	> 100 µM (inactive)	> 100 µM (inactive)	> 100 µM (inactive)	> 100 µM (inactive)	> 100 µM (inactive)	> 100 µM (inactive)	> 100 µM (inactive)	> 100 µM (inactive)	> 100 µM (inactive)	> 100 µM (inactive)	> 100 µM (inactive)	> 100 µM (inactive)	> 100 µM (inactive)	> 100 µM (inactive)	> 100 µM (inactive)	> 100 µM (inactive)	> 100 µM (inactive)	> 100 µM (inactive)
CCN(CC)c1nc(N(C)C)c2ccccc2n1	15.1 µM (inactive)	25.4 µM (inactive)	27.9 µM (inactive)	72.4 µM (inactive)	27.9 µM (inactive)	15.3 µM (inactive)	31 µM (inactive)	22.9 µM (inactive)	31.3 µM (inactive)	24 µM (inactive)	15.9 µM (inactive)	10.3 µM (inactive)	30.1 µM (inactive)	19.4 µM (inactive)	23.2 µM (inactive)	58.9 µM (inactive)	25.5 µM (inactive)	14.9 µM (inactive)	25.8 µM (inactive)	26.4 µM (inactive)
CC(=O)O/C(=C1\C[C@H]2[C@@H]3CC=C4C[C@@H](OC(C)=O)CC[C@]4(C)[C@H]3CC[C@]2(C)C1=O)C(F)(F)F	6.08 µM (inactive)	4.7 µM (inactive)	8.53 µM (inactive)	10.4 µM (inactive)	16.2 µM (inactive)	6.31 µM (inactive)	5.18 µM (inactive)	7.4 µM (inactive)	12.7 µM (inactive)	6.19 µM (inactive)	21 µM (inactive)	12.7 µM (inactive)	7.62 µM (inactive)	10.8 µM (inactive)	6.85 µM (inactive)	9.71 µM (inactive)	29.4 µM (inactive)	8.77 µM (inactive)	15.3 µM (inactive)	13.5 µM (inactive)
CC(=O)NC1C(OCc2ccccc2)OC(CO)C(O)C1OC(C)C(=O)NC(C(=O)NC(CCC(=O)NCCCCNc1c2ccccc2nc2cccc([N+](=O)[O-])c12)C(N)=O)C(C)C (stereo not given)	2.22 µM (inactive)	0.887 µM (active)	1.81 µM (inactive)	2.71 µM (inactive)	1.97 µM (inactive)	1.01 µM (active)	1.91 µM (inactive)	1.82 µM (inactive)	2.36 µM (inactive)	1.56 µM (inactive)	3.27 µM (inactive)	2.65 µM (inactive)	2.52 µM (inactive)	1.05 µM (active)	1.79 µM (inactive)	3.37 µM (inactive)	2.71 µM (inactive)	2.09 µM (inactive)	1.29 µM (inactive)	2.67 µM (inactive)
COC(=O)C(I(OS(=O)(=O)c1ccc(C)cc1)c1ccccc1)=P(c1ccccc1)(c1ccccc1)c1ccccc1	12.2 µM (inactive)	29.9 µM (inactive)	12.4 µM (inactive)	30.1 µM (inactive)	16.6 µM (inactive)	19.2 µM (inactive)	21.2 µM (inactive)	15.9 µM (inactive)	19.5 µM (inactive)	20.5 µM (inactive)	8.39 µM (inactive)	23.7 µM (inactive)	18.2 µM (inactive)	3.13 µM (inactive)	16.8 µM (inactive)	40.2 µM (inactive)	28.6 µM (inactive)	18.7 µM (inactive)	24.5 µM (inactive)	18.9 µM (inactive)
CCOC(=O)C1C2C1C1C(C(=O)OCC)C21 (stereo not given)	> 100 µM (inactive)	> 100 µM (inactive)	> 100 µM (inactive)	> 100 µM (inactive)	> 100 µM (inactive)	> 100 µM (inactive)	> 100 µM (inactive)	49.2 µM (inactive)	> 100 µM (inactive)	81.8 µM (inactive)	> 100 µM (inactive)	> 100 µM (inactive)	> 100 µM (inactive)	> 100 µM (inactive)	> 100 µM (inactive)	> 100 µM (inactive)	> 100 µM (inactive)	> 100 µM (inactive)	> 100 µM (inactive)	> 100 µM (inactive)
COc1ccc2cc(NC(=O)N/N=C\c3ccc([N+](=O)[O-])cc3)ccc2c1	73.3 µM (inactive)	29.4 µM (inactive)	30.5 µM (inactive)	37.4 µM (inactive)	37.6 µM (inactive)	12.9 µM (inactive)	21.8 µM (inactive)	49.1 µM (inactive)	72.3 µM (inactive)	20.4 µM (inactive)	18.7 µM (inactive)	81.8 µM (inactive)	60.3 µM (inactive)	> 100 µM (inactive)	22.9 µM (inactive)	43.6 µM (inactive)	45.9 µM (inactive)	20.9 µM (inactive)	34.1 µM (inactive)	27.6 µM (inactive)
O=c1ccs[nH]1	5.78 µM (inactive)	9.08 µM (inactive)	6.15 µM (inactive)	14.7 µM (inactive)	7.05 µM (inactive)	3.97 µM (inactive)	12.7 µM (inactive)	3.81 µM (inactive)	26.7 µM (inactive)	7.96 µM (inactive)	51.1 µM (inactive)	3.37 µM (inactive)	28.3 µM (inactive)	8.91 µM (inactive)	3.8 µM (inactive)	9.46 µM (inactive)	16.3 µM (inactive)	16.4 µM (inactive)	19.9 µM (inactive)	12.9 µM (inactive)
CCc1nc(N)nc(N)c1-c1ccc2c(c1)nnn2CCc1ccccc1	8.53 µM (inactive)	2.32 µM (inactive)	5.89 µM (inactive)	26.1 µM (inactive)	7.23 µM (inactive)	13.9 µM (inactive)	4.95 µM (inactive)	23.4 µM (inactive)	14.1 µM (inactive)	26.4 µM (inactive)	38.6 µM (inactive)	21.8 µM (inactive)	28.2 µM (inactive)	14.9 µM (inactive)	12.6 µM (inactive)	11.2 µM (inactive)	> 60.5 µM (inactive)	7.01 µM (inactive)	3.09 µM (inactive)	4.63 µM (inactive)
CC(C)=CCCC(C)CCOS(=O)C(F)(F)F (stereo not given)	15.8 µM (inactive)	16.1 µM (inactive)	> 100 µM (inactive)	16.6 µM (inactive)	11.4 µM (inactive)	13.2 µM (inactive)	6.78 µM (inactive)	43.7 µM (inactive)	88.7 µM (inactive)	1.89 µM (inactive)	20 µM (inactive)	10.4 µM (inactive)	16.9 µM (inactive)	4.7 µM (inactive)	2.58 µM (inactive)	25.2 µM (inactive)	11 µM (inactive)	8.81 µM (inactive)	22.9 µM (inactive)	18 µM (inactive)
CC[C@@]1(OC(=O)CCC(=O)O)C(=O)OCc2c1cc1n(c2=O)Cc2cc3ccccc3nc2-1	0.127 µM (active)	< 0.01 µM (active)	0.0263 µM (active)	3.86 µM (inactive)	0.0208 µM (active)	0.458 µM (active)	0.137 µM (active)	0.065 µM (active)	0.659 µM (active)	0.257 µM (active)	0.193 µM (active)	1.36 µM (inactive)	1.85 µM (inactive)	0.692 µM (active)	0.0442 µM (active)	0.0309 µM (active)	0.363 µM (active)	0.0187 µM (active)	0.0773 µM (active)	0.239 µM (active)

Source: ChEMBL document CHEMBL1201862, “PubChem BioAssay data set” (2004)
